This note sets out measurements from article PMC12693701, “Glucosinolate-Derived Metabolites from Barbarea vulgaris (Brassicaceae): Evaluation of Antimicrobial, Antioxidant, and Anti-Inflammatory Potentials” (Molecules, 2025).

One assay has as its system B. subtilis ATCC 6633. Briefly: Inhibition of biofilm formation (crystal violet). The assay is classed as cell-based, Bacillus subtilis. The method, then:
(§1) The procedure involved preparing 96-well microtiter plates (Sarstedt, Nümbrecht, Germany) by adding 100 μL of Mueller-Hinton nutrient broth to each well. A 10 μL aliquot of bacterial suspension (adjusted to 1.0 McFarland for Gram-positive bacteria and 0.5 McFarland for Gram-negative bacteria) was added to the wells. The plates were then incubated at 37 °C for 48 h to allow biofilm formation. After incubation, the wells were washed twice with 200 μL of sterile 0.85% saline to remove non-adherent and weakly adherent cells. Biofilms formed by the adherent bacteria were fixed with 100 μL of methanol until fully evaporated. The biofilms were then stained using 0.1% (w/v) crystal violet (Fluka Chemie AG, Buchs, Switzerland) and left at room temperature for 20 min. After staining, excess dye was washed off with deionized water, followed by 96% ethanol. Controls included wells containing only nutrient broth to check for sterility and nonspecific binding. Background absorbance from the sterile medium, fixative, and dye was subtracted from the OD readings of the test samples. All experiments were performed in triplicate.
(§2) To assess the inhibition of biofilm formation, 96-well microtiter plates (Sarstedt, Nümbrecht, Germany) were prepared by dispensing 100 μL of Mueller-Hinton broth into each well. From stock solutions of tested compounds (at 10 mg/mL), 100 μL was added to the first row of the plate, followed by twofold serial dilutions (from 5 to 0.039 mg/mL) using a multichannel pipette (Eppendorf AG, Hamburg, Germany). Subsequently, 10 μL of fresh bacterial suspension (adjusted to 0.5 McFarland for Gram-negative and 1.0 McFarland for Gram-positive bacteria) was added to each well. The plates were incubated at 37 °C for 48 h. After incubation, the contents of the wells were carefully removed by tapping, and the remainder of the experiment was conducted following the procedure described above.
(§3) Controls consisted of wells containing only broth or broth with the tested compounds to assess sterility and nonspecific binding. Background absorbance was subtracted from test readings as described earlier. All experiments were performed in triplicate, and tetracycline (Sigma-Aldrich, St. Louis, MO, USA), dissolved in nutrient broth, was used as a reference compound.

A further assay has as its system S. aureus ATCC 25923. Briefly: Inhibition of biofilm formation (crystal violet). The assay is classed as cell-based, Staphylococcus aureus. Here is the method:
as §1, §2, §3

A further assay relates to P. mirabilis. Briefly: Inhibition of biofilm formation (crystal violet). The assay is classed as cell-based, Proteus mirabilis. Here is the method: as §1, §2, §3
A further assay relates to S. enterica. As to the kind of experiment: Inhibition of biofilm formation (crystal violet). The assay is classed as cell-based, Salmonella enterica. The conditions noted are these: biofilm coverage reduced by 90%. The method, then:
as §1, §2, §3

Another assay has as its system K. pneumoniae. Briefly: Inhibition of biofilm formation (crystal violet). In kind it is cell-based, Klebsiella pneumoniae. The method, then:
as §1, §2, §3

The nature of assay [1]: DPPH radical scavenging assay. The conditions noted are these: mean ± SD. Here is the method:
The DPPH assay was used to assess the ability of the tested compounds to scavenge reactive radical species. Stock solutions of the investigated compounds were prepared in DMSO and then diluted with methanol to a final volume of 1000 µL. An equal volume of a 50 µM DPPH solution in methanol was then added to the prepared mixture. The final concentrations of the test compounds were 25, 50, and 100 µM. After thorough mixing, the samples were incubated in the dark at room temperature for 20 to 60 min. Methanol was used as a blank, and absorbance was measured at 517 nm after incubation. All measurements were performed in triplicate.
A general note: Loss of DPPH colour is used to gauge radical scavenging.

The target in assay [2] is T1, Type I-B soybean lipoxygenase (Glycine max, UniProt P08170).
T1 sequence (P08170 1-839): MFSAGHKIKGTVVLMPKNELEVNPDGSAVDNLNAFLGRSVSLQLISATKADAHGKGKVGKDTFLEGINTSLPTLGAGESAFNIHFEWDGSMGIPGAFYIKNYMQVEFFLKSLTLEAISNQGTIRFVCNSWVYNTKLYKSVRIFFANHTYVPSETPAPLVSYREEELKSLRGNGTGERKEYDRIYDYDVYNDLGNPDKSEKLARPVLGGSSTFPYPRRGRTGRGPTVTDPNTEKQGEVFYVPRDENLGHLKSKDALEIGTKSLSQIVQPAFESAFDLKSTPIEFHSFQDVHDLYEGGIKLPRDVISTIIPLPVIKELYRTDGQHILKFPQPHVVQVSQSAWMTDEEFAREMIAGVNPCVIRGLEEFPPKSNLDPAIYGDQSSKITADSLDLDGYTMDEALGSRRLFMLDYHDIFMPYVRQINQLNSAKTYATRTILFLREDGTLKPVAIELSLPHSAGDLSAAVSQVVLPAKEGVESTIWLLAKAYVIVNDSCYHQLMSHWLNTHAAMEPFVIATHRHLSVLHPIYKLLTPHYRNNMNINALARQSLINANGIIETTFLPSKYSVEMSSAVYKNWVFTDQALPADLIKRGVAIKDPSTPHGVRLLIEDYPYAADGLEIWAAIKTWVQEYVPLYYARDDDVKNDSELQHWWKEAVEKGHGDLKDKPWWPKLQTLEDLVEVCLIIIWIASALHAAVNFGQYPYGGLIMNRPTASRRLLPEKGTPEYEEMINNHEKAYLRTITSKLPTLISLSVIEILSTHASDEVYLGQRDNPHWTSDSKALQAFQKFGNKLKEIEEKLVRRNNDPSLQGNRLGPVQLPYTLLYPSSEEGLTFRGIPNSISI
As to the kind of experiment: LOX inhibition assay. The assay is classed as biochemical. The conditions noted are these: 100 µM; mean ± SD; read-out: Percentage of LOX Inhibition. Here is the method: Type I-B soybean lipoxygenase is a commonly used enzyme for studying the anti-inflammatory properties of various compounds [19]. The lipoxygenase (LOX) inhibition assay measures the enzyme’s ability to convert sodium linoleate to 13-hydroperoxylinoleic acid. The inhibition of the enzyme by the investigated compounds was determined by measuring the absorbance at 234 nm for each prepared sample. Specifically, the test compound, Tris buffer, an enzyme solution (5 × 10^3 units/mL in saline), and sodium linoleate (3 mM in Tris buffer, pH 9), were added to a UV cuvette, and the absorbance was recorded. […] All measurements were performed in triplicate.

The mark [3] stands for this setting: biofilm coverage reduced by 50%.
Setting [4] is: biofilm coverage reduced by 90%.

Regarding `CN(C)[C@@H]1C(O)=C(C(N)=O)C(=O)[C@@]2(O)C(O)=C3C(=O)c4c(O)cccc4[C@@](C)(O)[C@H]3C[C@@H]12` [Tetracycline, reference compound], the BIC50 entry is recorded as “˂15.6 µg/mL” with B. subtilis ATCC 6633 (setting [3]), 250 µg/mL with S. aureus ATCC 25923 (setting [3]), 320 µg/mL in the assay with P. mirabilis (setting [3]) and 6 µg/mL in the assay on K. pneumoniae (setting [3]). For the same compound, the BIC90 in the assay on B. subtilis ATCC 6633 (setting [4]) is recorded as 15.6 µg/mL; in the assay on S. aureus ATCC 25923 (setting [4]), 300 µg/mL; with P. mirabilis (setting [4]) it was more than 1000 µg/mL; with S. enterica, 180 µg/mL; with K. pneumoniae (setting [4]), 125 µg/mL.

Consider `O=c1c(O)c(-c2ccc(O)c(O)c2)oc2cc(O)cc(O)c12` [Quercetin, reference compound], for which the “DPPH Scavenging Ability” value is on record as 95.3 ± 0.8% in assay [1] (25 µM, 20 min); 95.1 ± 0.9% in assay [1] (25 µM, 60 min); 96.8 ± 1.0% in assay [1] (50 µM, 20 min); 96.5 ± 0.9% in assay [1] (50 µM, 60 min); 95.1 ± 0.9% in assay [1] (100 µM, 20 min); 95.4 ± 0.8% in assay [1] (100 µM, 60 min). Moreover, in assay [2], the inhibition (usually the share of the control response that was lost under treatment) at 100 µM came to 92 ± 0.9%.
